Where “and” joins values, the source holds several entries; their conditions need not be identical. Equal values may be shown once. Where no end group is shown, it is not given here.
Assays:
rat OA knee joints = assay: Rat papain/cysteine OA model, histology and modified Mankin score 8 weeks post-transplantation; format: in vivo
Method: (§1) FIG. 4a and FIG. 4b show the FITC-fluorescence-labeled BiFP without or with blocking peptide (FIG. 4a) and the DilC18-fluorescence-labeled rat MSCs (rMSCs) without or with delivery in BiFP (BiFP+rMSCs) (FIG. 4b) are intra-articularly injected into rat OA knee joints pre-established with papain/cysteine, respectively. The whole joint capsules are removed at 24 h post-injection, and articular surfaces of the distal femur are observed under a two-photon microscope. Representative images of second harmonic generation (SHG) signals in collagen and fluorescent signals of BiFP (FIG. 4a) and rMSCs (FIG. 4b) are shown (left). Quantification of overall fluorescence areas (right). FIG. 4c and FIG. 4d show the representative images of Hematoxylin and eosin (H&E) staining (FIG. 4c), and safranin-O/fast green staining (FIG. 4d) of distal femurs of sham-control or OA knee joints collected 8 weeks post-transplantation without or with BiFP, rMSCs, and rMSCs delivered in BiFP (BiFP+rMSCs). […] Bar=50 μm. The data are shown as mean±SD. * p<0.05, ** p<0.01 and **** p<0.0001 as determined by Student's t test (2 groups) or one-way ANOVA (≥3 groups).
Furthermore, after incubation with BiFP, MSCs are immediately injected into OA joints in a rat model, and the joints are subjected to histological examination 8 weeks post-transplantation.

[1] = test system: chondrocyte line hiP cells; assay: Col12-TP binding to chondrocyte line hiP cells; format: cell-based
hMSCs [2] = assay: Fluorescent peptide binding to hMSCs (confocal microscopy, imaging flow cytometry); format: cell-based, human; conditions: for binding to hMSCs: fluorescent peptide 0, 2.5, 10, 40 μM, 37° C.; for percentage of cells surrounded by FITC-conjugated BiFP (imaging flow cytometry): increasing concentration from 2.5 to 40 μM
Method: FIG. 2a and FIG. 2b show the results of the analysis of hMSCs binding to BiFP. The hMSCs were labeled with Hochest 33258, and incubated with FITC-labeled BiFP for 1 h, followed by imaging flow cytometry on an Amnis Imaging Cytometer (left). Bar=10 μm. Quantification of the percentage of BiFP-bound hMSCs (right).
The FITC-labeled BiFP or rhodamine-labeled collagen XII-targeting peptide (Col12-TP) are chemically synthesized by Biomertech (USA) or ABI (USA) to identify peptide binding by confocal microscopic observation. Briefly, for FITC-BiFP or rhodamine-Col12-TP treatment, 1×10^6 hMSCs incubated with 1 μM DilC18 in 37° C. for 10 min and then incubated in final 200 μl PBS with fluorescent peptide at 0, 2.5, 10, 40 μM in 37° C. for 30 min with gently mixing every 10 min. Cells are counterstained with mounting solution containing DAPI. Peptide fluorescence was taken using an ImageXpress Micro Confocal High Content Imaging system (Molecular Devices, Sunnyvale, CA, USA).

[3] = test system: intervertebral disc (IVD); assay: Rat intervertebral disc damage model induced by 20 G needle puncture; format: in vivo; conditions: rat tail
Text: FIG. 7a is the schematic flowchart of the experimental design for intervertebral disc (IVD) regeneration by PBS, BiFP, EGFP-expressing hMSCs without or with delivery in BiFP (BiFP+hMSCs) in the rat intervertebral disc damage model induced by 20 G needle puncture. The rats were sacrificed at the indicated time point. The rat tail tissues were subjected to X-Ray, T2-weighted MRI, Hematoxylin and eosin (H&E), Safranin O/fast green stain, immunohistochemistry and immunofluorescence analysis. […] FIG. 7d and FIG. 7e show the representative images of H&E staining and safranin-O/fast green staining of NP tissues, respectively. […] Positive signal is visualized as brown color (DAB). […] Cell nuclei were counterstained with 4′, 6-diamidino-2-phenylindole (DAPI). Bar=50 μm. […] X-ray, T2-weighted MRI and histological, histochemical and immunofluorescence analyses reveal the successful induction of IVD damage when compared PBS group with sham control group (FIG. 7b-7e).

corneal epithelium = assay: Rat corneal epithelial injury model induced by n-heptanol; format: in vivo; conditions: one eye drop (20 μl); up to 2 weeks after injury
Method: FIG. 8a is the schematic flowchart of the experimental design for corneal epithelium regeneration by EGFP-expressing hMSCs without or with delivery in BiFP (BiFP+hMSCs) in the rat corneal epithelium damage model. […] Representative fluorescein-stained cornea images are shown at indicated time points (left). Quantification of the percentage of healed area was calculated using ImageJ Fiji software (right). * p<0.05, ** p<0.01 and *** p<0.001 as determined by One Way ANOVA. […] Bar=50 μm. […] Positive signal is visualized as brown color (DAB) and NC is negative control. Bar=50 μm. To further confirm the utility of BiFP as a cell carrier and expand the application of BiFP-delivered MSCs in corneal epithelial defect regeneration, a rat model of severe and corneal epithelial injury induced by repeated n-heptanol administration was utilized.

hMSCs [4] = assay: Real-time RT-PCR of chondrogenic genes in peptide-bound hMSCs; format: cell-based, human; conditions: compared to Col12-TP; at 1 week
OA cartilage = assay: OA-specific targeting of labeled BiFP, two-photon microscopy of rat OA joints; format: in vivo; conditions: intra-articular injection, rat OA joint, 24 h post-injection
Method: as §1
Since BiFP can home to OA cartilage and the chondrogenesis-inducing ability of integrin α2β1 is likely to induce MSCs to undergo chondrogenesis, the BiFP is applied in the delivery of human MSCs to the OA cartilage surface for OA regenerative medicine.

[5] = Particle size distribution by dynamic light scattering (DLS); format: physicochemical; conditions: 0.2 mg/ml in PBS at 25° C.
Method: (§2) The triple helix structure of BiFP, collagen, or denatured collagen peptides was measured at 0.2 mg/ml.
(§3) In the present invention, a bifunctional peptide (BiFP) is synthesized to prevent complicated chemical steps and improve efficiency. A 42-residue peptide (BiFP) with a sequence where GPOGPOGPOGPOGFOGERGPOGPOGPOGPODLQYWYPIWDTH, O is hydroxyproline, was prepared in PBS, pH 7.4 at 25° C. by Biomedical Translation Research Center (Taiwan). The triple helix structure of BiFP, collagen, or denatured collagen peptides was measured at 0.2 mg/ml, respectively. The particle size distribution of 0.2 mg/ml BiFP in PBS at 25° C. was examined by dynamic light scattering (DLS). […] Size was evaluated using dynamic light scattering: Malvern ZS90 zetasizer (Malvern Instruments Corp, Malvern, UK).

hMSCs [6] = assay: sGAG production in peptide-bound hMSCs (DMB dye); format: cell-based, human; conditions: compared to Col12-TP; at 2 weeks
Method: (§4) The hMSCs are incubated with Col12-TP or BiFP peptide for 1 h, and stained with Calcein-AM (green) and ethidium homodimer (magenta), followed by confocal microscopic observation (left). Bar=50 μm. The quantification of viable cell percentages (right). […] The hMSCs are stained with 1,9 dimethylmethlyene blue (DMB) dye and analyzed at OD 525 nm. Results are normalized by PicoGreen dsDNA quantitation. The data are shown as mean±SD. * p<0.05, ** p<0.01, *** p<0.001 and **** p<0.0001 as determined by Student's t test (2 groups) or the ANOVA (≥3 groups).

hMSCs [7] = assay: WST-1 proliferation assay of peptide-bound hMSCs; format: cell-based, human; conditions: compared to Col12-TP
hMSCs [8] = assay: hMSC viability, Calcein-AM / ethidium homodimer staining; format: cell-based, human; conditions: compared to Col12-TP; 0, 2.5, 10, 40 μM
Method: as §4
For BiFP or Col12-TP treatment, 1×10^6 hMSCs incubated in final 200 μl PBS with peptide at 0, 2.5, 10, 40 μM in 37° C. for 30 mins with gently mixing every 10 min. Cells are stained with Calcein-AM (ThermoFisher) for live hMSCs and ethidium homodimer (Life Technologies) for dead hMSCs, respectively. Labeled hMSCs are visualized with ImageXpress Micro Confocal High Content Imaging system (Molecular Devices, Sunnyvale, CA, USA). Three independent images each group are counted live hMSCs and quantified.

[9] = Circular dichroism (CD) spectroscopy of secondary structure; format: physicochemical; conditions: 0.2 mg/ml; PBS, pH 7.4
Method: as §2, §3

| binding to hMSCs (hMSCs [2]) | particle size (main size) by dynamic light scattering [5] | conformation in solution by CD spectroscopy [9] | Substance | histology (H&E, safranin-O) of OA knee joints (rat OA knee joints) | binding to collagen XII-expressing hiP cells [1] | intervertebral disc regeneration / damage (T2 MRI, safranin-O) [3] | corneal epithelial defect (fluorescein staining) (corneal epithelium) | expression of chondrogenic genes sox9, col2a1 and aggrecan (hMSCs [4]) | fluorescent signal (red dots) in OA cartilage (OA cartilage) | synthesis of glycosaminoglycan (hMSCs [6]) | percentage of cells surrounded by FITC-conjugated BiFP (imaging flow cytometry) (hMSCs [2]) | cell proliferation of hMSCs (hMSCs [7]) | cell viability of hMSCs (hMSCs [8]) |
| --- | --- | --- | --- | --- | --- | --- | --- | --- | --- | --- | --- | --- | --- |
| cannot bind to hMSCs | – | – | Col12-TP: collagen XII-targeting peptide of the applicant's previous application TW202128730 (DLQYWYPIWDTH; also: rhodamine-labeled) [reference compound] | still exhibited severe OA | can bind to Col12-TP | – | – | – | – | – | – | – | – |
| can also bind to hMSCs | – | – | GPOGPOGPOGPOGVMGFOGPOGPOGPOGPODLQYWYPIWDTH [BiFP containing a GVMGFO sequence] | – | – | – | – | – | – | – | increase in the percentage of cells surrounded by FITC-conjugated BiFP | – | – |

| Substance | binding to hMSCs (hMSCs [2]) | particle size (main size) by dynamic light scattering [5] | conformation in solution by CD spectroscopy [9] | histology (H&E, safranin-O) of OA knee joints (rat OA knee joints) | binding to collagen XII-expressing hiP cells [1] | intervertebral disc regeneration / damage (T2 MRI, safranin-O) [3] | corneal epithelial defect (fluorescein staining) (corneal epithelium) | expression of chondrogenic genes sox9, col2a1 and aggrecan (hMSCs [4]) | fluorescent signal (red dots) in OA cartilage (OA cartilage) | synthesis of glycosaminoglycan (hMSCs [6]) | percentage of cells surrounded by FITC-conjugated BiFP (imaging flow cytometry) (hMSCs [2]) | cell proliferation of hMSCs (hMSCs [7]) | cell viability of hMSCs (hMSCs [8]) |
| --- | --- | --- | --- | --- | --- | --- | --- | --- | --- | --- | --- | --- | --- |
| GPOGPOGPOGPOGFOGERGPOGPOGPOGPODLQYWYPIWDTH [BiFP] | can bind to hMSCs in a dose-dependent manner | ~ 1.914 nm and 1.914 nm | stable triple-helical conformation | still exhibited severe OA | – | still exhibited severe IVD damage | remained markedly defective even 2 weeks after injury | increased expression of chondrogenic genes | apparent red dots are observed | enhance synthesis of glycosaminoglycan | increase in the percentage of cells surrounded by FITC-conjugated BiFP | increase | increase cell viability |

— patent publication US20260273131A1, “Cell graft delivered in a delivery system and use thereof in regenerative medicine” (China Medical University, priority 2022, published 2026)
